Consider one molecule from US20160331754A1, “THERAPIES FOR TREATING CANCERS” (GILEAD SCIENCES, INC., priority 2014, published 2016).

Structures are written as SMILES. Several values for one entry are separate records, joined by “and”; a condition that tells them apart may be missing. Equal entries are not always repeated. Some results are limits rather than exact numbers.

For test [1], the system named is pS6RP Ser235/236. Briefly: Flow cytometry, TPO-activated S6RP phosphorylation in CD34+ progenitor cells from MF patients. In kind it is cell-based, human. Particulars: for p-S6RP (table title: percentage of Annexin-V positive cells): cells from Compound A-treated MF patients; for normalized percentage of TPO-activated S6RP phosphorylation (p-S6RP): TPO-treated vehicle=100. The protocol:
PBMCs were isolated from whole blood of myelofibrosis (MF) patients who had not received treatments (i.e. naïve patients) or received ruxolitinib (i.e. rux-treated patients). The cells were treated with 0.02, 0.2, or 2.0 μM of Compound B or vehicle (0.1% DMSO in 0.1% FBS/RPMI) for 2 hours at 37° C. The cells were then fixed, permeabilized, and stained for FACS analysis. Antibodies specific to p-AKT Ser473 and pS6RP Ser235/236 were used to detect AKT phosphorylation (p-AKT) and S6RP phosphorylation (p-S6RP) in CD34^+/CD3^−/CD14^−/CD19/CD66^− (BD Biosciences) gated cells using flow cytometry. The percentage of basal (i.e. untreated with TPO) AKT and S6RP phosphorylation were normalized to vehicle control. A two-tailed paired t-test (GraphPad Prism) was used to calculate p-values. Values of p<0.05 were considered significant.
Also, PBMC cells from naïve or ruxolitinib treated patients were isolated and treated with Compound B and with TPO as described above. The percentage of TPO-activated AKT and S6RP phosphorylation were normalized to those of TPO-treated vehicle (“no TPO” values in Table 4). […] Also, the inhibition to PI3K signaling was dose-dependent to Compound B.
Similar studies were conducted with PI3K inhibitors Compounds C and D. PBMC from MF patients had received ruxolitinib (rux) and MF patient had received Compound A. The cells were treated with Compounds C or D at 0, 20.0, 200.0, 2000.0 nM for 2 hours at 37° C. Cells were treated with TPO for 10 minutes. The percentage of basal p-AKT and p-S6RP levels were normalized to vehicle control and those of TPO-treated were normalized to TPO-treated vehicle control. The PI3Kδ inhibitors Compound C is referred by the chemical names of (S)-2-(1-((9H-purin-6-yl)amino)ethyl)-6-fluoro-3-phenylquinazolin-4(3H)-one.

Test [2] concerns p-AKT Ser473. Put plainly: Western blot, TPO-activated AKT phosphorylation in BaF3/MPL cells. The format is cell-based. Particulars: then TPO 50 ng/mL 10 min. The protocol:
In addition, Compound B was examined for the effects on the PI3K signaling pathway by determining the levels of AKT and S6 phosphorylation with or without TPO activation. Two cell lines, BaF3/MPL and UT-7/TPO sensitive or responsive to TPO activation were used. The cells were starved (i.e. growing on medium having less FBS) in […] FBS/RPMI for two hours before treated with 0.1, 1.0, or 2.0 μM of Compound B or vehicle (0.1% DMSO in RPMI) for 2 hours at 37° C. To examine the TPO-activated phosphorylation, the cells were then treated or activated with 50 ng/mL of human recombinant TPO (Peprotech) for 10 minutes at 37° C. The TPO activation or treatment may reflect the conditions in diseased cells as the PI3K pathway is activated by TPO in myelofibrosis. After treating with compound and/or TPO, the cells were collected, lysed by lysis buffer (Cell Signaling), separated by SDS-PAGE, and analyzed by the Western blot using antibodies specific to p-AKT Ser473 or pS6 Ser235/236 (Cell Signaling). The phosphorylation levels in treated cells were calculated and compared to those of untreated cells (i.e. vehicle as negative control).
In general terms: In western blotting, separated proteins are transferred to a membrane and probed.

Test [3] concerns WIL2-S target cells. Briefly: Antibody-dependent cellular phagocytosis (ADCP) with polarized macrophages. In kind it is cell-based. Particulars: Homo sapiens, Macrophage, 256 nM. The protocol: Next, antibody-dependent cellular phagocytosis (ADCP) was characterized. The CD14^+ negatively selected monocytes (Astarte Biologics, Bothell, Wash.) were cultured in Gibco AIM V Medium CTS (Life Technologies, Grand Island, N.Y.) with macrophage colony-stimulating factor (PeproTech, Rocky Hill, N.J.) at 60 ng/mL. At Day 6 or 7, monocyte-derived macrophages were washed and plated with polarizing cytokines. For differentiation to M1 macrophages, cells were plated with interferon-γ 100 ng/mL (R&D Systems, Minneapolis, Minn.) and lipopolysaccharides from E. coli 055:B5 100 ng/mL (Sigma-Aldrich, St Louis, Mo.) for 24 hours. For differentiation to M2c macrophages, cells were plated in interleukin-10 10 ng/mL (R&D Systems) for 48 hours. Compound B titration was added to the plated macrophages and incubated at 37° C. for about 1 hour. […] Cells were then stained with pooled FITC anti-CD14 (Becton, Dickinson and Company, Franklin Lakes, N.J.) and FITC anti-CD11b (eBioscience, San Diego, Calif.), harvested from 96-well plates with Accutase (Merck Millipore, Darmstadt, Germany) and vigorous pipetting, and analyzed on an LSR II flow cytometer (Becton, Dickinson and Company). Double-positive cells (FITC+CellTracker Red) represented phagocytized target cells and the levels of phagocytosis were calculated as % double-positive cells/% double positive cells+% target cells alone×100. […]

For `CC[C@H](Nc1ncnc2[nH]cnc12)c1nc2cccc(F)c2c(=O)n1-c1ccccc1` [Compound B, (S)-2-(1-((9H-purin-6-yl)amino)propyl)-5-fluoro-3-phenylquinazolin-4(3H)-one], the “p-S6RP (table title: percentage of Annexin-V positive cells)” value is 61% and 69% and 64% in test [1] (0.02 μM); 52% and 54% and 42% in test [1] (0.2 μM); 30% and 34% and 25% in test [1] (2.0 μM). Also, the “normalized percentage of TPO-activated S6RP phosphorylation (p-S6RP)” value was 57% and 50% and 86% in test [1] (0.02 μM, naïve MF patients); 55% and 79% and 60% and 59% and 53% and 62% in test [1] (0.02 μM, rux-treated MF patients); 48% and 42% and 69% in test [1] (0.2 μM, naïve MF patients); 35% and 56% and 55% and 50% and 32% and 44% in test [1] (0.2 μM, rux-treated MF patients). Besides, the results for the “reduced p-AKT levels vs vehicle” value in test [2] (0.1 μM 2 h), in test [2] (1.0 μM 2 h) and in test [2] (2.0 μM 2 h) were 51%, 64% and 67%, respectively. Also, in test [3], the inhibition at 0.256 µM was less than 30%.

By inhibition is commonly meant the relative decrease from the control value, in per cent. Higher therefore signals a response far below the control.
